Source: patent US20060094786A1, “Treating syndrome X with substituted tetralins and indanes” (priority 2002, published 2006)

Columns and labels:
PPARδ = biological target: T1, PPARδ (Homo sapiens, UniProt Q03181); experiment: Transfection Assay for PPARδ Receptors (PPAR-Gal4 receptor / Gal4-Luciferase Reporter, HEK293 cells); format: cell-based; conditions: for PPARδ FI: fold induction, unbracketed values, PPARδ standard FI = 36.1
T1 sequence (Q03181 171-441 limits assumed): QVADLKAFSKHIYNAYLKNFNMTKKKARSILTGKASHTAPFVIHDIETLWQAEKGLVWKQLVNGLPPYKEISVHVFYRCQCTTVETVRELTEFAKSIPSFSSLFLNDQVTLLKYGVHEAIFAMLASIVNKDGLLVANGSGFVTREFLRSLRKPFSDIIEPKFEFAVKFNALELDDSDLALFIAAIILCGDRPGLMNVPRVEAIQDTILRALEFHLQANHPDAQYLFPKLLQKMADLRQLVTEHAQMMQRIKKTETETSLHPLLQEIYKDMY
Experimental: Transfection Assay for PPARδ Receptors
HEK293 cells were grown in DMEM/F-12 Media supplemented with 10% FBS and glutamine (GIBCOBRL). The cells were co-transfected with DNA for PPAR-Gal4 receptor and Gal4-Luciferase Reporter using the DMRIE-C Reagent. On the following day, the DNA-containing medium were replaced with 5% Charcoal treated FBS growth medium. After six hours, cells were seeded in 96 well plate and incubated at 37° C. in CO2 incubator overnight. Cells were challenged by test compounds and incubated for 24 hours at 37° C. in 5% CO2 incubator. Luciferase activity was assayed using the Steady-Glo Luciferase Assay Kit from Promega. DMRIE-C Reagent was purchased from GIBCO Cat. No. 10459-014. OPTI-MEM I Reduced Serum Medium was purchased from GIBCO Cat. No. 31985. Steady-Glo Luciferase Assay Kit was obtained from Promega Part# E254B.

PPARγ = biological target: T2, PPARγ (Homo sapiens, UniProt P37231); experiment: aP2 Assay for PPAR Gamma Agonists (bDNA aP2 mRNA, preadipocytes); format: cell-based; conditions: fold induction, unbracketed values; PPARγ standard FI = 70.3
T2 construct: Following the challenge of the preadipocytes, cells may be lysed with lysis buffer; endogenous in cells; host or cells: preadipocytes
T2 sequence (P37231 1-505): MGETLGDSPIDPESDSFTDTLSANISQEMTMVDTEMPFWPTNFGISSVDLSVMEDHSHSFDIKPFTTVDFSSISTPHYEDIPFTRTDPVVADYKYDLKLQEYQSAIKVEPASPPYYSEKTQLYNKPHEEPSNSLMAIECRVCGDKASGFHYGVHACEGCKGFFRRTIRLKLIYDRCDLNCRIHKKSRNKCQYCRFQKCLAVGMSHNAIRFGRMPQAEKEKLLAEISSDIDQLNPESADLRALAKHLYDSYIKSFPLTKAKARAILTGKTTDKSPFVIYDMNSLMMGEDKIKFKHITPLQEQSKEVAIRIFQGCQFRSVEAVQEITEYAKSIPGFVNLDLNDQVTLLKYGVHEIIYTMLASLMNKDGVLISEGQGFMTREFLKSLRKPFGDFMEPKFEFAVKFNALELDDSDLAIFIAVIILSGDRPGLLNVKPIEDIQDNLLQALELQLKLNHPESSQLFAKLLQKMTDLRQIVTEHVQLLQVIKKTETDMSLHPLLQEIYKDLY
From the text: aP2 Assay for PPAR Gamma Agonists
The procedure is described in detail in Burris et al., Molecular Endocrinology 1999, 13:410, which is hereby incorporated by reference in its entirety, and aP2 assay results of agonist intrinsic activity may be presented as fold increase over vehicle in induction of aP2 mRNA production.
Twenty-four hours after the initial seeding of the 96-well plates by hand (around 20,000/well), the differentiation assay may be initiated. Medium may be removed and replaced with 150 μl of differentiation medium containing vehicle (DMSO) or test compounds. Cells may be returned to incubator for 24 hours culture. At the termination of the challenge, medium may be removed and 100 ul of lysis buffer may be added to initiate the bDNA aP2 mRNA assay. The branched DNA assay may be performed according to the manufacturer's protocol (Bayer Diagnostics; Emeryville, Calif.). Result may be expressed as the fold increase of aP2 mRNA production activated over vehicle controls. EC50's and Emax may be determined by non-linear regression with a sigmoidal fit curve.
Following the challenge of the preadipocytes, cells may be lysed with lysis buffer (Bayer Diagnostics) containing the aP2 oligonucleotides. After a 15 minute incubation at 53° C. or 30 minutes at 37° C. incubator, 70 ul of the lysis buffer from each well may be added to a corresponding capture well (preincubated with 70 ul of blocking buffer (Bayer Diagnostics)). The capture plate may be incubated overnight at 53° C. in a plate incubator (Bayer Diagnostics). After this incubation, the bDNA and labeled probes may be annealed as directed by the manufacturer. Following a 30-minute incubation with the luminescent alkaline phosphatase substrate, dioxitane, the luminescence may be quantitated in a Dynex MLX microtiter plate luminometer. Oligonucleotide probes designed to anneal to the aP2 mRNA and function in the bDNA mRNA detection system are designed with ProbeDesigner software (Bayer Diagnostics). This software package analyzes a target sequence of interest with a series of algorithms in order to determine which regions of the sequence can perform as locations for capture, label, or spacer probe annealing. The sequences of the oligonucleotides are as follows: […]

CCN(C(=O)Nc1ccc(OC(F)(F)F)cc1)C1Cc2ccc(SC(C)(C)C(=O)O)cc2C1 (stereo not drawn) [Example 2, 2-{2-[1-Ethyl-3-(4-trifluoromethoxyphenyl)ureido]indan-5-ylsulfanyl}-2-methylpropionic acid]
PPARδ FI (PPARδ): 4.2
PPARγ FI (PPARγ): 0.24

CCN(C(=O)Nc1ccc(SC(F)(F)F)cc1)C1Cc2ccc(SC(C)(C)C(=O)O)cc2C1 (stereo not drawn) [Example 4, 2-{2-[1-Ethyl-3-(4-trifluoromethylsulfanylphenyl)ureido]indan-5-ylsulfanyl}-2-methylpropionic acid]
PPARγ FI (PPARγ): 3.7

CCCCCN(C(=O)Nc1ccc(SC(F)(F)F)cc1)C1Cc2ccc(SC(C)(C)C(=O)O)cc2C1 (stereo not drawn) [Example 5, 2-Methyl-2-{2-[1-pentyl-3-(4-trifluoromethylsulfanylphenyl)ureido]indan-5-ylsulfanyl}propionic acid]
PPARδ FI (PPARδ): 2.5
PPARγ FI (PPARγ): 4.0

CCCCCN(C(=O)Nc1ccc(-c2ccccc2)cc1)C1Cc2ccc(SC(C)(C)C(=O)O)cc2C1 (stereo not drawn) [Example 12, 2-[2-(3-Biphenyl-4-yl-1-pentylureido)indan-5-ylsulfanyl]-2-methylpropionic acid]
PPARγ FI (PPARγ): 11

CCCCCCN(C(=O)Nc1ccc(C(C)C)cc1)C1Cc2ccc(SC(C)(C)C(=O)O)cc2C1 (stereo not drawn) [Example 13, 2-{2-[3-(4-Isopropylphenyl)-1-hexylureido]indan-5-ylsulfanyl}-2-methylpropionic acid]
PPARγ FI (PPARγ): 1.2

CCCCCCN(C(=O)Nc1ccc(SC(F)(F)F)cc1)C1Cc2ccc(SC(C)(C)C(=O)O)cc2C1 (stereo not drawn) [Example 15, 2-Methyl-2-{2-[1-hexyl-3-(4-trifluoromethylsulfanylphenyl)ureido]indan-5-ylsulfanyl}propionic acid]
PPARδ FI (PPARδ): 1.2

CCCN(C(=O)Nc1ccc(OC(F)(F)F)cc1)C1Cc2ccc(SC(C)(C)C(=O)O)cc2C1 (stereo not drawn) [Example 16, 2-Methyl-2-{2-[1-propyl-3-(4-trifluoromethoxyphenyl)ureido]indan-5-ylsulfanyl}propionic acid]
PPARγ FI (PPARγ): 0.37

CCCCN(C(=O)Nc1ccc(SC(F)(F)F)cc1)C1Cc2ccc(SC(C)(C)C(=O)O)cc2C1 (stereo not drawn) [Example 17, 2-Methyl-2-{2-[1-butyl-3-(4-trifluoromethylsulfanylphenyl)ureido]indan-5-ylsulfanyl}propionic acid]
PPARγ FI (PPARγ): 0.43

CC(C)(Sc1ccc2c(c1)CC(NC(=O)Nc1ccc(OC(F)(F)F)cc1)C2)C(=O)O (stereo not drawn) [Example 18, 2-Methyl-2-{2-[3-(4-trifluoromethoxyphenyl)ureido]indan-5-ylsulfanyl}propionic acid]
PPARγ FI (PPARγ): 0.31

C=CCCCN(C(=O)Nc1ccc(OC(F)(F)F)cc1)C1Cc2ccc(SC(C)(C)C(=O)O)cc2C1 (stereo not drawn) [Example 19, 2-Methy-2-{2-[1-pent-4-enyl-3-(4-trifluoromethoxyphenyl)ureido]indan-5-ylsulfanyl}propionic acid]
PPARδ FI (PPARδ): 1.4

CC(C)CCN(C(=O)Nc1ccc(OC(F)(F)F)cc1)C1Cc2ccc(SC(C)(C)C(=O)O)cc2C1 (stereo not drawn) [Example 20, 2-Methyl-2-{2-[1-(3-methylbutyl)-3-(4-trifluoromethoxyphenyl)ureido]indan-5-ylsulfanyl}-2-methylpropionic acid]
PPARγ FI (PPARγ): 0.44

CC(C)CCN(C(=O)Nc1ccc(C(C)C)cc1)C1Cc2ccc(SC(C)(C)C(=O)O)cc2C1 (stereo not drawn) [Example 21, 2-{2-[3-(4-Isopropylphenyl)-1-(3-methylbutyl)ureido]indan-5-ylsulfanyl}-2-methylpropionic acid]
PPARγ FI (PPARγ): 0.05

CCN(C(=O)Nc1ccc(OC(F)(F)F)c(Br)c1)C1Cc2ccc(SC(C)(C)C(=O)O)cc2C1 (stereo not drawn) [Example 25, 2-{2-[3-(3-Bromo-4-trifluoromethoxyphenyl)-1-ethylureido]indan-5-ylsulfanyl}-2-methylpropionic acid]
PPARδ FI (PPARδ): 4.5

CCN(C(=O)Nc1cccc(OC(F)(F)F)c1)C1Cc2ccc(SC(C)(C)C(=O)O)cc2C1 (stereo not drawn) [Example 26, 2-{2-[1-Ethyl-3-(3-trifluoromethoxyphenyl)ureido]indan-5-ylsulfanyl}-2-methylpropionic acid]
PPARδ FI (PPARδ): 2.1

CC(C)(Sc1ccc2c(c1)CC(N(CCCC1CCCC1)C(=O)Nc1ccc(OC(F)(F)F)cc1)C2)C(=O)O (stereo not drawn) [Example 28, 2-{2-[1-(3-Cyclopentylpropyl)-3-(4-trifluoromethoxyphenyl)ureido]indan-5-ylsulfanyl}-2-methylpropionic acid]
PPARδ FI (PPARδ): 8.2

CCCN(C(=O)Nc1ccc(OC)cc1)C1Cc2ccc(SC(C)(C)C(=O)O)cc2C1 (stereo not drawn) [Example 32, 2-{2-[3-(4-Methoxyphenyl)-1-propylureido]indan-5-ylsulfanyl}-2-methylpropionic acid]
PPARδ FI (PPARδ): 1.5

CCCN(C(=O)Nc1cc(C)cc(C)c1)C1Cc2ccc(SC(C)(C)C(=O)O)cc2C1 (stereo not drawn) [Example 33, 2-{2-[3-(3,5-Dimethylphenyl)-1-propylureido]indan-5-ylsulfanyl}-2-methylpropionic acid]
PPARδ FI (PPARδ): 0.8

CCCN(C(=O)Nc1ccc(C(F)(F)F)cc1)C1Cc2ccc(SC(C)(C)C(=O)O)cc2C1 (stereo not drawn) [Example 35, 2-Methyl-2-{2-[1-propyl-3-(4-trifluoromethylphenyl)ureido]indan-5-ylsulfanyl}-propionic acid]
PPARδ FI (PPARδ): 5.6

CC(C)(Sc1ccc2c(c1)CC(N(CCCC1CCCC1)C(=O)Nc1ccccc1)C2)C(=O)O (stereo not drawn) [Example 37, 2-{2-[1-(3-Cyclopentylpropyl)-3-phenylureido]indan-5-ylsulfanyl}-2-methylpropionic acid]
PPARδ FI (PPARδ): 1.9

CCCCCN(C(=O)Nc1ccc2ccccc2c1)C1Cc2ccc(SC(C)(C)C(=O)O)cc2C1 (stereo not drawn) [Example 39, 2-Methyl-2-[2-(3-naphthalen-2-yl-1-pentylureido)indan-5-ylsulfanyl]propionic acid]
PPARδ FI (PPARδ): 9.3

CCCN(C(=O)Nc1ccc(OC(F)(F)F)cc1)C1CCc2ccc(SC(C)(C)C(=O)O)cc2C1 (stereo not drawn) [Example 46, 2-Methyl-2-{7-[1-propyl-3-(4-trifluoromethoxyphenyl)ureido}-5,6,7,8-tetrahydronaphthalen-2-ylsulfanyl}propionic acid]
PPARδ FI (PPARδ): 6.0

CCN(C(=O)Nc1ccc(C(C)(C)C)cc1)C1CCc2cc(SC(C)(C)C(=O)O)c(OC)cc2C1 (stereo not drawn) [Example 49, 2-{6-[3-(4-tert-Butylphenyl)1-ethylureido]-3-methoxy-5,6,7,8-tetrahydronaphthalen-2-ylsulfanyl}-2-methylpropionic acid]
EC50 (PPARδ; bracketed values): > 3 µM
